Data reported in US10058550B2, “Methods of treating heart failure” (priority 2015, dated 2018).

Biological target: human APJ receptor (Homo sapiens (Human), UniProt P35414)
Assay: biochemical
Assay type: biochemical
Conditions: read-out: Activity hAPJ SPA EC50 IP
Procedure: The human APJ receptor was cloned by polymerase chain reaction and the gene encoding the receptor was subcloned in pFLAG-CMV™-3 expression vector (Sigma, Saint Louis, Mo. USA) in-house at Amgen. A GTPγS binding assay was performed on membranes prepared from CHO cells stably expressing human APJ receptor. The optimum experimental conditions for the concentrations of GDP, MgCl2, and NaCl in the assay buffer were initially determined. The assay was performed in assay buffer [20 mM HEPES, pH 7.5, 5 mM MgCl2, and 0.1% (w/v) BSA with 200 mM NaCl, 3 μM GDP] and membranes expressing human APJ receptor/well along with WGA PS beads. The reaction was initiated by addition of 0.2 nM [^35S]GTPγS (Perkin Elmer Life and Analytical Sciences, Waltham USA) in the absence or presence of various ligands and incubated at RT for 90 min. […] All the results presented are means of several independent experiments and analyzed by non-linear regression methods using commercially available program Prism (GraphPad, San Diego, Calif.) to obtain EC50 detailed in Table 58.

Sequence of human APJ receptor (P35414 whole entry): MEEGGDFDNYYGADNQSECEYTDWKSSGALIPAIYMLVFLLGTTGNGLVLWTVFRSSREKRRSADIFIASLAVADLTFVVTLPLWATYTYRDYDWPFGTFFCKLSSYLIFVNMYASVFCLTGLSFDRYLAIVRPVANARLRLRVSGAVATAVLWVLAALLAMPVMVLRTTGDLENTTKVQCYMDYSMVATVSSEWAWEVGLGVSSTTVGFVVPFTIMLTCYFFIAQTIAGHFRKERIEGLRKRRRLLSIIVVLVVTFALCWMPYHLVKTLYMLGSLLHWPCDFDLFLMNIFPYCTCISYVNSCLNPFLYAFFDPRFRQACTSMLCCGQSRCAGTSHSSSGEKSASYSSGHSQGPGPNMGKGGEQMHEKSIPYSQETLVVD

| Structure (SMILES) | EC50 [nM] |
| --- | --- |
| COc1cccc(OC)c1-n1c(NS(=O)(=O)[C@@H](C)Cc2ncc(F)cn2)nnc1-c1cncc(C)c1 (single isomer, unassigned) [Example 209.0] | 4.9 |
| COc1cccc(OC)c1-n1c(NS(=O)(=O)[C@@H](C)Cc2ncc(F)cn2)nnc1-c1cnccc1C (single isomer, unassigned) [Example 217.0] | 180 |
| COc1cccc(OC)c1-n1c(NS(=O)(=O)[C@@H](C)Cc2ncc(F)cn2)nnc1-c1cnccc1C (single isomer, unassigned) [Example 218.0] | 300 |
| COc1cccc(OC)c1-n1c(NS(=O)(=O)[C@@H](C)Cc2ncc(F)cn2)nnc1-c1cncc(Cl)c1 (single isomer, unassigned) [Example 220.0] | 7.1 |
| COc1cccc(OC)c1-n1c(NS(=O)(=O)[C@@H](C)Cc2ncc(F)cn2)nnc1-c1cncc(Cl)c1 (single isomer, unassigned) [Example 221.0] | 35 |
| COc1cccc(OC)c1-n1c(NS(=O)(=O)[C@@H](C)[C@H](C)c2ncc(F)cn2)nnc1-c1cncc(C)c1 (single isomer, unassigned) [Example 234.0] | 16 |
| COc1cccc(OC)c1-n1c(NS(=O)(=O)[C@@H](C)[C@H](C)c2ncc(F)cn2)nnc1-c1cncc(C)c1 (single isomer, unassigned) [Example 235.0] | 0.28 |
| COc1cccc(OC)c1-n1c(NS(=O)(=O)[C@@H](C)[C@H](C)c2ncc(F)cn2)nnc1-c1cncc(C)c1 (single isomer, unassigned) [Example 236.0] | 100 |
| COc1cccc(OC)c1-n1c(NS(=O)(=O)[C@@H](C)[C@H](C)c2ncc(F)cn2)nnc1-c1cncc(C)c1 (single isomer, unassigned) [Example 237.0] | 14 |
| COc1cccc(OC)c1-n1c(NS(=O)(=O)[C@@H](C)[C@H](O)c2ccc(C#N)cc2)nnc1-c1cncc(C)c1 (single isomer, unassigned) [Example 248.0] | 60 |
| COc1cccc(-c2nnc(NS(=O)(=O)C[C@H](O)c3ccc(F)cc3S(C)(=O)=O)n2-c2c(OC)cccc2OC)n1 (single isomer, unassigned) [Example 268.0, (R)—N-(4-(2,6-dimethoxyphenyl)-5-(6-methoxypyridin-2-yl)-4H-1,2,4-triazol-3-yl)-2-(4-fluoro-2-(methylsulfonyl)phenyl)-2-hydroxyethanesulfonamide or (S)—N-(4-(2,6-dimethoxyphenyl)-5-(6-methoxypyridin-2-yl)-4H-1,2,4-triazol-3-yl)-2-(4-fluoro-2-(methylsulfonyl)phenyl)-2-hydroxyethanesulfonamide] | 0.17 |
| COc1cccc(-c2nnc(NS(=O)(=O)[C@@H](C)[C@H](O)c3ccc(F)cc3F)n2-c2c(OC)cccc2OC)n1 (single isomer, unassigned) [Example 279.0] | 28 |
| COc1cccc(-c2nnc(NS(=O)(=O)[C@@H](C)[C@H](O)c3ccc(F)cc3F)n2-c2c(OC)cccc2OC)n1 (single isomer, unassigned) [Example 280.0] | 0.27 |
| COc1cccc(-c2nnc(NS(=O)(=O)[C@@H](C)[C@H](O)c3ccc(F)cc3F)n2-c2c(OC)cccc2OC)n1 (single isomer, unassigned) [Example 281.0] | 43 |
| COc1cccc(-c2nnc(NS(=O)(=O)[C@@H](C)[C@H](O)c3ccc(F)cc3F)n2-c2c(OC)cccc2OC)n1 (single isomer, unassigned) [Example 282.0] | 0.71 |
| COc1cccc(-c2nnc(NS(=O)(=O)[C@@H](C)[C@H](O)c3ccc(F)cc3)n2-c2c(OC)cccc2OC)n1 (single isomer, unassigned) [Example 284.0] | 13 |

| Structure (SMILES) | EC50 [nM] |
| --- | --- |
| COc1cccc(-c2nnc(NS(=O)(=O)[C@@H](C)[C@H](O)c3ccc(F)cc3)n2-c2c(OC)cccc2OC)n1 (single isomer, unassigned) [Example 285.0] | 0.57 |
| COc1cccc(-c2nnc(NS(=O)(=O)[C@@H](C)[C@H](O)c3ccc(F)cc3)n2-c2c(OC)cccc2OC)n1 (single isomer, unassigned) [Example 286.0] | 0.68 |
| COc1cccc(-c2nnc(NS(=O)(=O)[C@@H](C)[C@H](O)c3ccc(F)cc3)n2-c2c(OC)cccc2OC)n1 (single isomer, unassigned) [Example 287.0] | 14 |
| COc1cccc(-c2nnc(NS(=O)(=O)[C@@H](C)[C@H](O)c3ccc(F)cc3S(C)(=O)=O)n2-c2c(OC)cccc2OC)n1 (single isomer, unassigned) [Example 289.0, (1R,2S)—N-(4-(2,6-dimethoxyphenyl)-5-(6-methoxypyridin-2-yl)-4H-1,2,4-triazol-3-yl)-1-(4-fluoro-2-(methylsulfonyl)phenyl)-1-hydroxypropane-2-sulfonamide or (1S,2R)—N-(4-(2,6-dimethoxyphenyl)-5-(6-methoxypyridin-2-yl)-4H-1,2,4-triazol-3-yl)-1-(4-fluoro-2-(methylsulfonyl)phenyl)-1-hydroxypropane-2-sulfonamide] | 11 |
| COc1cccc(OC)c1-n1c(NS(=O)(=O)[C@@H](C)[C@H](O)c2nc(C)c(C)s2)nnc1-c1cncc(C)c1 (single isomer, unassigned) [Example 291.0] | 1.8 |
| COc1cccc(OC)c1-n1c(NS(=O)(=O)[C@@H](C)[C@H](O)c2nc(C)c(C)s2)nnc1-c1cncc(C)c1 (single isomer, unassigned) [Example 292.0] | 0.9 |
| COc1cccc(OC)c1-n1c(NS(=O)(=O)[C@@H](C)[C@H](O)c2nc(C)c(C)s2)nnc1-c1cncc(C)c1 (single isomer, unassigned) [Example 293.0] | 13 |
| COc1cccc(OC)c1-n1c(NS(=O)(=O)[C@@H](C)[C@H](O)c2nc(C)c(C)s2)nnc1-c1cncc(C)c1 (single isomer, unassigned) [Example 294.0] | 11 |
| COc1cccc(OC)c1-n1c(NS(=O)(=O)[C@@H](C)[C@H](O)c2nc(C)c(C)s2)nnc1-c1cncc(C)c1 (single isomer, unassigned) [Example 295.0] | 98 |
| COc1cccc(OC)c1-n1c(NS(=O)(=O)[C@@H](C)[C@H](O)c2nc(C)c(C)s2)nnc1-c1cncc(C)c1 (single isomer, unassigned) [Example 296.0] | 4.7 |
| COc1cnc([C@@H](O)[C@H](C)S(=O)(=O)Nc2nnc(-c3cncc(C)c3)n2-c2c(OC)cccc2OC)cn1 (single isomer, unassigned) [Example 305.0] | 0.39 |
| COc1cnc([C@@H](O)[C@H](C)S(=O)(=O)Nc2nnc(-c3cncc(C)c3)n2-c2c(OC)cccc2OC)cn1 (single isomer, unassigned) [Example 306.0] | 20 |
| COc1cnc([C@@H](O)[C@H](C)S(=O)(=O)Nc2nnc(-c3cncc(C)c3)n2-c2c(OC)cccc2OC)cn1 (single isomer, unassigned) [Example 308.0] | 76 |
| COc1cnc([C@@H](O)[C@H](C)S(=O)(=O)Nc2nnc(-c3cncc(C)c3)n2-c2c(OC)cccc2OC)cn1 (single isomer, unassigned) [Example 309.0] | 9.5 |
| COc1cnc([C@@H](OC)[C@H](C)S(=O)(=O)Nc2nnc(-c3cncc(C)c3)n2-c2c(OC)cccc2OC)cn1 (single isomer, unassigned) [Example 311.0] | 0.26 |
| COc1cnc([C@@H](OC)[C@H](C)S(=O)(=O)Nc2nnc(-c3cncc(C)c3)n2-c2c(OC)cccc2OC)cn1 (single isomer, unassigned) [Example 312.0] | 27 |
